Measured values as given in patent US20020032187A1, “Method for stimulating bone formation” (SmithKline Beecham Corporation, priority 1996, published 2002).
Read-outs that look alike come from different tables or passages of the source. No end group written: not given here.

Experiments:
ROS 17/2.8 osteoblasts = conditions: for increase over the basal level of osteocalcin: 48 hr incubation, Vitamin D3 at 10 nM, internal controls
Method: Cell culture: ROS 17/2.8 osteoblasts were routinely cultured in Ham's F-12 medium containing 5% FBS, 25 rmM HEPES (pH 7.4), 1.1 mM CaCl2, penicillin (10 U/ml) and streptomycin (10 ug/ml). The cells were subcultured twice a week using 0.04% trypsin containing 5 mM EDTA to detach the cells.
For the assay, 30,000 cells were plated per well in 24-well multidishes in 0.5 ml of HAM's F-12 medium containing 1% FBS and allowed to adhere for 3-4 hr at 37° C. in a humidified incubator with 5% CO2. Increasing concentrations of test compounds ([…]) were then added to the wells (duplicate cultures per concentration tested) and the incubation continued for an additional 48 hr. At the end of the incubation, cultures supernatants were removed and assayed for osteocalcin levels using a rat RIA as per the manufacturer's instructions. The lower limit of detection in this assay was 0.3 ng/ml. In every experiment, Vitamin D3 (10 nM) and the peptide cyclo[Arg-Gly-Asp-D-Phe-Val] were tested as an internal controls. […] Activity for each compound was expressed as the EC50 from the dose-response curve.

MC3T3-E1 osteoblasts = test: Mineralization of MC3T3 osteoblasts; format: cell-based, murine; conditions: 25 uM
Method: Mineralization of MC3T3 osteoblasts
To characterize the temporal sequence of osteoblast differentiation, 30,000 cells were plated/well in 24-well multidishes and grown for periods ranging from 3-26 days in a-MEM medium (GIBCO) containing 10% fetal bovine serum (V/V), penicillin (100 U/ml) and streptomycin (100 ug/ml), with or without supplementation with 5 mM β-glycerophosphate and 100 uM ascorbic acid in the presence or absence of RGD compounds.
Mineralization of cells was assessed by calcium isotope accumulation. Cells were incubated for 48 h in medium containing 0.5 uCi/mi of ^45CaCl2 at various time points after seeding. Subsequently, the monolayers were washed twice with PBS using 1 ml/wash. Cells were harvested and digested in 0.1 N NaOH and aliquots were counted by liquid scintillation counting using a Beckman 5500 scintillation counter.
Calcified nodules in actively mineralizing cultures were visualized by staining cell monolayers with Alizarin-Red-S (Sigma Chemical Co, St Louis, Mo.). Cell cultures were washed twice with PBS, fixed for 10 min in 50 percent ethanol, rehydrated with 1 ml of distilled water for 5 min and then stained for 1-3 min with 200 uL of 1 percent Alizarin Red S (aqueous). The monolayers were then washed extensively and very carefully using 1 ml H2O per wash. Calcified nodules which appeared a bright red color were identified by light microscopy.
To monitor the differentiation of cells to the mature osteoblast type, alkaline phosphatase activity was determined in cell lysates using the colorimetric assay. Cells were washed twice with PBS using 1 ml/wash. Subsequently, the monolayers were transferred to ice and cells lysed in 0.2 ml of 0.1% TX-100. […] The reactions were stopped with the addition of 100 uL of ice cold 0.25 N NaOH to each reaction and absorbance was read at 410 nm. […] Alkaline phosphatase activity was calculated as umol of substrate (p-nitrophenol) released/mg protein/min.
Osteocalcin levels in the supernatants were determined at various time points during the assay using a mouse RIA as per the manufacturers instructions. […]

Compound | stimulates release of osteocalcin (in words) (ROS 17/2.8 osteoblasts) | increase over the basal level of osteocalcin (ROS 17/2.8 osteoblasts) | further results
CN1Cc2cc(C(=O)NCc3nc4ccccc4[nH]3)ccc2NC(CC(=O)O)C1=O (racemic) [7-[(((2-benzimidazolyl)methyl)amino)carbonyl]-2,3,4,5-tetrahydro4-methyl-3-oxo-1H-1,4-benzodiazepine-2-acetic acid] | osteocalcin-releasing |  | 
C=C1CC[C@H](O)C/C1=C/C=C1\CCC[C@]2(C)[C@@H]([C@H](C)CCCC(C)C)CC[C@@H]12 [Vitamin D3] |  | two to three fold increase | 
CC(C)[C@@H]1NC(=O)[C@@H](Cc2ccccc2)NC(=O)[C@H](CC(=O)O)NC(=O)CNC(=O)[C@H](CCCNC(=N)N)NC1=O [cyclo[Arg-Gly-Asp-D-Phe-Val]] | stimulate the release of osteocalcin | two to three fold increase | 45Ca uptake (MC3T3-E1 osteoblasts): increased calcium uptake; alkaline phosphatase activity (MC3T3-E1 osteoblasts): enhanced alkaline phosphatase activity; calcification nodules upon Alizarin-Red staining (MC3T3-E1 osteoblasts): showed calcification nodules upon Alzirin staining; EC50 (ROS 17/2.8 osteoblasts; 48 h): 0.74 µM; stimulates release of osteocalcin (in words) (ROS 17/2.8 osteoblasts; listed as cyclo(Arg-Gly-Asp-D-Phe-Val)): osteocalcin-releasing
Benzyl-(N-methyl)Arg-Gly-Asp-NH-(2 or 4 chloro)Ph | stimulate the release of osteocalcin |  | 
Benzyl-(N-methyl)Arg-Gly-Asp-NHPh | stimulate the release of osteocalcin |  | 
Gly-Arc-Gly-Asp-Ser-OH (GRGDS-OH) | stimulate the release of osteocalcin |  | 
